Measured values as given in patent US20240246954A1, “COMPOSITIONS AND METHODS FOR INHIBITING KRAS” (TheRas, Inc., priority 2021, published 2024).

Tests used:
[1] = target: T1, Avi-KRAS G12D (1-169) GppNHp/RAF1 RBD-3×FLAG (52-151) (Homo sapiens, UniProt P01116, G12D); experiment: HTRF Raf1-KRAS G12D-GppNHp disruption assay; format: biochemical; settings: 1 h incubation
T1 construct: Avi-KRAS G12D (1-169) GppNHp
Method: (§1) The HTRF assay employed the following protocol:
(§2) Compounds were dispensed in assay plate (384-well, Grenier Bione #784075) using Echo (model 555) with dose response settings: 200 nL final volume, titration from 100 μM as a 10-point dilution series. Protein mix was prepared in assay buffer, and dispensed on plates, 10 μL per well, then incubated for 1 h at room temperature, with 700 rpm shaking. Reagents mix was prepared and dispensed on plates, 10 μL per well, then incubated for 1 h at room temperature, with 700 rpm shaking.
(§3) Plates were analyzed on an Envision plate reader using the following setting: Excitation 320 nm, Bandwidth […]; Emission 615 nm, Bandwidth […], Gain 100%, Flashes 100, Lag 60 μs. Data was reported as percentage of activity, with DMSO as 100%. Data was plotted and analyzed using Prism 8.

[2] = target: T2, Avi-KRAS G12D/Q25A (1-169) GppNHp/3×FLAG-PI3KCA (157-299) (Homo sapiens, UniProt P01116, G12D/Q25A); experiment: HTRF PI3KCA-KRAS G12D/Q25A-GppNHp disruption assay; format: biochemical; settings: 1 h incubation
T2 construct: Avi-KRAS G12D/Q25A (1-169) GppNHp
T2 sequence (P01116 1-169 isoform P01116-2 G12D/Q25A limits assumed): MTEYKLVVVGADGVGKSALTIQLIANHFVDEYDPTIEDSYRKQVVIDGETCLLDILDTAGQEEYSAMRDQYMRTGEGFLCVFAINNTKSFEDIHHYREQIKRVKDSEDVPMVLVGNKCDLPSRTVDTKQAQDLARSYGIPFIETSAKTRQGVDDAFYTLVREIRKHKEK
Method: as §1, §2, §3

T1 sequence (P01116 1-169 isoform P01116-2 G12D limits assumed): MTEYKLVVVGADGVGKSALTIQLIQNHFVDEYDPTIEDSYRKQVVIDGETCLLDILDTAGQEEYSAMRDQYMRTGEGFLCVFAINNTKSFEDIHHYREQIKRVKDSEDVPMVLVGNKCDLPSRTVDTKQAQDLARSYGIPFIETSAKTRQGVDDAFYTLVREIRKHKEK

| IC50 [1] | IC50 [2] | Compound |
| --- | --- | --- |
| 10 to 30 µM | 10 to 30 µM | CC(=O)N1CC(Nc2nc(OC[C@@H]3CCCN3C)nc3c(F)c(-c4ccc(F)c5sc(N)nc45)c(Cl)cc23)C1 [Compound 67] |
| 1 to 10 µM | 10 to 30 µM | CNCCNc1nc(OC[C@@H]2CCCN2C)nc2c(F)c(-c3ccc(F)c4sc(N)nc34)c(Cl)cc12 [Compound 70] |
| 10 to 30 µM | 10 to 30 µM | CN1CCC[C@H]1COc1nc(N2CC3CNCC3C2)c2cc(Cl)c(-c3ccc(F)c4sc(N)nc34)c(F)c2n1 (stereo partly shown) [Compound 71] |
| 1 to 10 µM | 10 to 30 µM | CN(C)CCNc1nc(OC[C@@H]2CCCN2C)nc2c(F)c(-c3ccc(F)c4sc(N)nc34)c(Cl)cc12 [Compound 75] |
| 10 to 30 µM | 10 to 30 µM | CC(=O)NCCNc1nc(OC[C@@H]2CCCN2C)nc2c(F)c(-c3ccc(F)c4sc(N)nc34)c(Cl)cc12 [Compound 76] |
| 10 to 30 µM | 10 to 30 µM | C[C@H]1CNCCN1c1nc(OC[C@@H]2CCCN2C)nc2c(F)c(-c3ccc(F)c4sc(N)nc34)c(Cl)cc12 [Compound 78] |
| 10 to 30 µM | 10 to 30 µM | CN1CCC[C@H]1COc1nc(NCCN)c2cnc(-c3ccc(F)c4sc(N)nc34)c(F)c2n1 [Compound 81] |
| 10 to 30 µM | 10 to 30 µM | C[C@H]1CN(c2nc(OC[C@@H]3CCCN3C)nc3c(F)c(-c4ccc(F)c5sc(N)nc45)c(Cl)cc23)CCN1 [Compound 84] |
| 10 to 30 µM | 10 to 30 µM | CN1CCC[C@H]1COc1nc(N2CC3(CCCN3)C2)c2cc(Cl)c(-c3ccc(F)c4sc(N)nc34)c(F)c2n1 [Compound 85] |
| 10 to 30 µM | 10 to 30 µM | CN1CCC[C@H]1COc1nc(NCCN)c2cc(Cl)c(-c3cccc4nc(N)n(C)c34)c(F)c2n1 [Compound 86] |
| 10 to 30 µM | 10 to 30 µM | CNc1nc2c(-c3c(Cl)cc4c(NCCN)nc(OC[C@@H]5CCCN5C)nc4c3F)ccc(F)c2s1 [Compound 87] |
| 1 to 10 µM | 1 to 10 µM | CN1CCC[C@H]1COc1nc(NC2CCNCC2)c2cc(Cl)c(-c3ccc(F)c4sc(N)nc34)c(F)c2n1 [Compound 91] |
| 10 to 30 µM | 10 to 30 µM | CN1CCC[C@H]1COc1nc(NCCN)c2cc(Cl)c(-c3cccc4oc(N)nc34)c(F)c2n1 [Compound 92] |
| 10 to 30 µM | 10 to 30 µM | CN1CCC[C@H]1COc1nc(NCCN)c2cc(Cl)c(-c3cccc4nc(N)cn34)c(F)c2n1 [Compound 93] |
| 10 to 30 µM | 10 to 30 µM | CN1CCC[C@H]1COc1nc(N2C[C@H]3NCC[C@H]32)c2cc(Cl)c(-c3ccc(F)c4sc(N)nc34)c(F)c2n1 [Compound 95] |
| 10 to 30 µM | 10 to 30 µM | CN1CCC[C@H]1COc1nc(N2CC3(CCN3)C2)c2cc(Cl)c(-c3ccc(F)c4sc(N)nc34)c(F)c2n1 [Compound 96] |
| 1 to 10 µM | 10 to 30 µM | CN1CCC[C@H]1COc1nc(NC2CN(C(=O)CN)C2)c2cc(Cl)c(-c3ccc(F)c4sc(N)nc34)c(F)c2n1 [Compound 97] |
| 1 to 10 µM | 1 to 10 µM | CN1CCC[C@H]1COc1nc(NC2CCNC2)c2cc(Cl)c(-c3ccc(F)c4sc(N)nc34)c(F)c2n1 (stereo partly shown) [Compound 98] |
| 1 to 10 µM | 10 to 30 µM | CN1CCC[C@H]1COc1nc(NC2CCCNC2)c2cc(Cl)c(-c3ccc(F)c4sc(N)nc34)c(F)c2n1 (stereo partly shown) [Compound 99] |
| 10 to 30 µM | 10 to 30 µM | CN1CCC[C@H]1COc1nc(NCCN)c2cc(Cl)c(-c3cccc4nc(N)sc34)c(F)c2n1 [Compound 100] |
| 10 to 30 µM | 10 to 30 µM | CN1CCC(c2nc(NCCN)c3cc(Cl)c(-c4ccc(F)c5sc(N)nc45)c(F)c3n2)CC1 [Compound 103] |
| 10 to 30 µM | 10 to 30 µM | CN1CCC[C@H]1COc1nc(N2C[C@@H]3[C@H]2CCN3C(=O)CN)c2cc(Cl)c(-c3cccc4nc(N)sc34)c(F)c2n1 [Compound 104] |
| 10 to 30 µM | 10 to 30 µM | CN1CCC1COc1nc(NC2CNC2)c2cc(Cl)c(-c3ccc(F)c4sc(N)nc34)c(F)c2n1 (stereo not shown) [Compound 105] |
| 1 to 10 µM | 1 to 10 µM | CN1C[C@H](F)C[C@H]1COc1nc(NC2CNC2)c2cc(Cl)c(-c3ccc(F)c4sc(N)nc34)c(F)c2n1 [Compound 106] |
| 10 to 30 µM | 10 to 30 µM | CN1CCC[C@H]1COc1nc(NCCN)c2cc(Cl)c(-c3ccc(F)c4nc(N)sc34)c(F)c2n1 [Compound 107] |
| 10 to 30 µM | 10 to 30 µM | CN1CCC[C@H]1COc1nc(N2CCN(C(=O)CN)CC2)c2cc(Cl)c(-c3ccc(F)c4sc(N)nc34)c(F)c2n1 [Compound 108] |
| 10 to 30 µM | 10 to 30 µM | CN1CCC[C@H]1COc1nc(NCCN)c2cc(Cl)c(-c3ccc4nc(N)sc4c3)c(F)c2n1 [Compound 109] |
| 1 to 10 µM | 1 to 10 µM | CN1CCC[C@H]1COc1nc(N2CC(N)C2)c2cc(Cl)c(-c3ccc(F)c4sc(N)nc34)c(F)c2n1 [Compound 112] |
| 1 to 10 µM | 1 to 10 µM | CN1CCC[C@H]1COc1nc(NC2CN(C(=O)CN)C2)c2cc(C(F)(F)F)c(-c3ccc(F)c4sc(N)nc34)c(F)c2n1 [Compound 114] |

More lines, now with the values behind:

| Compound | IC50 [1] | IC50 [2] |
| --- | --- | --- |
| Nc1nc2c(-c3c(C(F)(F)F)cc4c(N5CCNCC5)ncnc4c3F)ccc(F)c2s1 [Compound 65, 7-fluoro-4-(8-fluoro-4-(piperazin-1-yl)-6-(trifluoromethyl)quinazolin-7-yl)benzo[d]thiazol-2-amine] | 10 to 30 µM | 10 to 30 µM |
| C#Cc1cc2c(N3CCNCC3)ncnc2c(F)c1-c1ccc(F)c2sc(N)nc12 [Compound 66, 4-(6-ethynyl-8-fluoro-4-(piperazin-1-yl)quinazolin-7-yl)-7-fluorobenzo[d]thiazol-2-amine] | 10 to 30 µM | 10 to 30 µM |
| CO[C@@H]1CN(C)C[C@H]1Oc1nc(NC2CNC2)c2cc(Cl)c(-c3ccc(F)c4sc(N)nc34)c(F)c2n1 [Compound 68] | 10 to 30 µM | 10 to 30 µM |
| CO[C@@H]1C[C@@H](COc2nc(N3CCNCC3)c3cc(Cl)c(-c4ccc(F)c5sc(N)nc45)c(F)c3n2)N(C)C1 [Compound 69] | 10 to 30 µM | 10 to 30 µM |
| CO[C@@H]1C[C@@H](COc2nc(NC3CNC3)c3cc(Cl)c(-c4ccc(F)c5sc(N)nc45)c(F)c3n2)N(C)C1 [Compound 73] | 1 to 10 µM | 10 to 30 µM |
| CN1CCC[C@H]1COc1nc(NC2CNC2)c2cnc(-c3ccc(F)c4sc(N)nc34)c(F)c2n1 [Compound 80] | 10 to 30 µM | 10 to 30 µM |
| Nc1nc2c(-c3c(Cl)cc4c(N5CCNCC5)nc(OCC56CCCN5CCC6)nc4c3F)ccc(F)c2s1 [Compound 82] | 1 to 10 µM | 1 to 10 µM |
| Nc1nc2c(-c3c(C(F)(F)F)cc4c(NC5CNC5)ncnc4c3F)ccc(F)c2s1 [Compound 88] | 10 to 30 µM | 10 to 30 µM |
| Nc1nc2c(-c3c(Cl)cc4c(NC5CNC5)nc(O)nc4c3F)ccc(F)c2s1 [Compound 90] | 10 to 30 µM | 10 to 30 µM |
| N#Cc1cc2c(N3CCNCC3)ncnc2c(F)c1-c1ccc(F)c2sc(N)nc12 [Compound 94, 7-(2-amino-7-fluorobenzo[d]thiazol-4-yl)-8-fluoro-4-(piperazin-1-yl)quinazoline-6-carbonitrile] | 10 to 30 µM | 10 to 30 µM |
| CN1CCC(c2nc(N3CCNCC3)c3cc(Cl)c(-c4ccc(F)c5sc(N)nc45)c(F)c3n2)CC1 [Compound 101] | 10 to 30 µM | 10 to 30 µM |
| CN1CCC(c2nc(NC3CNC3)c3cc(Cl)c(-c4ccc(F)c5sc(N)nc45)c(F)c3n2)CC1 [Compound 102] | 10 to 30 µM | 10 to 30 µM |
| Nc1nc2c(F)ccc(-c3c(-c4ccoc4)cc4c(NC5CNC5)nc(OCC56CCCN5CCC6)nc4c3F)c2s1 [Compound 113] | 0.1 to 1 µM | 1 to 10 µM |
| CN1CCC[C@H]1COc1nc(N2CCNCC2)c2cc(C(F)(F)F)c(-c3ccc(F)c4sc(N)nc34)c(F)c2n1 [Compound 115] | 1 to 10 µM | 1 to 10 µM |
| CN1CCC[C@H]1COc1nc(N2CCN(C(=O)CN)CC2)c2cc(C(F)(F)F)c(-c3ccc(F)c4sc(N)nc34)c(F)c2n1 [Compound 116] | 1 to 10 µM | 1 to 10 µM |
| CN1C[C@H](F)C[C@H]1COc1nc(NC2CNC2)c2cc(C(F)(F)F)c(-c3ccc(F)c4sc(N)nc34)c(F)c2n1 [Compound 119] | 1 to 10 µM | 1 to 10 µM |
| CO[C@@H]1C[C@@H](COc2nc(NC3CNC3)c3cc(C(F)(F)F)c(-c4ccc(F)c5sc(N)nc45)c(F)c3n2)N(C)C1 [Compound 122] | 1 to 10 µM | 1 to 10 µM |
| Nc1nc2c(-c3c(C(F)(F)F)cc4c(N5CCNCC5)nc(OCC56CCCN5CCC6)nc4c3F)ccc(F)c2s1 [Compound 123] | 1 to 10 µM | 1 to 10 µM |
| COc1c(Cl)c(-c2ccc(F)c3sc(N)nc23)c(F)c2ncnc(N3CCNCC3)c12 [Compound 125, 4-(6-chloro-8-fluoro-5-methoxy-4-(piperazin-1-yl)quinazolin-7-yl)-7-fluorobenzo[d]thiazol-2-amine] | 10 to 30 µM | 10 to 30 µM |
| CN1C[C@H](F)C[C@H]1COc1nc(N2CCNCC2)c2cc(Cl)c(-c3ccc(F)c4sc(N)nc34)c(F)c2n1 [Compound 128] | 10 to 30 µM | 10 to 30 µM |
| N#CCc1cc2c(N3CCN(C(=O)CN)CC3)ncnc2c(F)c1-c1ccc(F)c2sc(N)nc12 [Compound 131] | 10 to 30 µM | 10 to 30 µM |
